Columns and labels:
[1] = Prolonged piperidine treatment of VKDRYI peptide resin (aspartimide formation, Asp-Arg motif); format: physicochemical; conditions: for D/L-Asu [%] / piperidides [%] / target [%]: 110 Fmoc removal cycles; for target [%]: target peptide VKDRYI
Description: (§1) Automated peptide synthesis, piperidine treatments of the resin samples and final TFA cleavages are performed as described in the protocols of example 4. In addition, to evaluate the advantage of the protecting groups used in this invention in heat accelerated SPPS we treat 50 mg peptide resin samples with a solution of 20% piperidine in DMF at 60°C over 200 minutes. Microwave assisted peptide synthesis conditions are often used to shorten peptide synthesis times and increase coupling reaction and Fmoc deprotection.
(§2) In table 4 the amounts of by-products formed after the prolonged exposure of the peptide resins to piperidine (110 Fmoc removal cycles) are summarized for all side-chain protections used in this invention. Table 4: Results after 110 Fmoc removal cycles using piperidine, target peptide sequence = VKDRYI, the aspartimide (Asu) derived by-products are the aspartimide itself and the sum of piperidides

[2] = Prolonged piperidine treatment at 60°C of VKDRYI peptide resin (aspartimide formation); format: physicochemical; conditions: for D/L-Asu [%] / piperidides [%]: 20% piperidine in DMF at 60°C, 200 minutes; for target [%]: target peptide VKDRYI, 20% piperidine in DMF at 60°C over 200 minutes, 100 Fmoc removal cycles; for aspartimide by-products per cycle: piperidine at 60 degrees Celsius
Description: as §1
The application of microwave heating to SPPS is accelerating coupling and deprotection reactions leading to shorter cycle times, higher repetitive yields, and ultimately purer peptides. On the other hand, microwave energy can also lead to increased levels of aspartimide by-products. To overcome that drawback we evaluated the advantage of the side-chain protections used in this invention by exposing the peptide resins to Fmoc removal cycles at 60 degrees Celsius.
as §2, with “5” for “4”, “at 60 degree Celsius (100” for “(110”, “invention. […]” for “invention.”, “5:” for “4:”, “100” for “110”, “piperidine at 60°C,” for “piperidine,”

[3] = Prolonged DBU treatment of VKDNYI peptide resin (aspartimide formation); format: physicochemical; conditions: for D/L-Asu [%] / piperides [%]: DBU/piperidine/DMF (1:19:79), 225 minutes; for target [%]: target peptide VKDNYI, DBU/piperidine/DMF (1:19:79) over 225 minutes, 110 Fmoc removal cycles
Description: (§3) Automated peptide synthesis, piperidine treatments of the resin samples and final TFA cleavages are performed as described in the protocols of example 4. In addition, 50 mg peptide resin samples are treated with a solution of DBU/piperidine/DMF (1:19:79) over 225 minutes to investigate the aspartimide formation at harsher Fmoc deprotection conditions often used for complete Fmoc removals in aggregation prone sequences.
(§4) The resulting peptide samples are analysied and all relevant impurities identified by UPLC-MS analysis (Xevo Waters Q-TOF-1, lock mass = 556.277 (leu-enkephaline), LC-conditions: CHS 18 1,7 µm (100x2.1 mm) at 40°C; water acetonitrile gradient of 5% to 35 % B over 10 min where buffer A is 0.1 % formic acid in water and buffer B is 0.1 % formic acid in acetonitrile, flow 0.6 ml/min).
In table 3 the amounts of by-products formed after prolonged DBU treatments are summarized for all side-chain protections used in this invention. […] Since the DBU mediated Fmoc removals are much quicker than the piperidine mediated, this experiment again represents a Fmoc SPPS assembly of an 100mer after introducing the aspartic acid residue using exclusively DBU for Fmoc cleavage. Table 3: Results after 110 Fmoc removal cycles using DBU, target peptide = VKDNYI, the aspartimide (Asu) derived by-products are the aspartimide itself and the sum of piperidides

[4] = Prolonged piperidine treatment of VKDNYI peptide resin (aspartimide formation, Asp-Asn motif); format: physicochemical; conditions: for D/L-Asu [%] / piperidides [%] / target [%]: 110 Fmoc removal cycles; for target [%]: target peptide VKDNYI
Description: as §3, §4
as §2, with “table 2” for “table 4”, “invention. […]” for “invention.”, “Table 2:” for “Table 4:”, “peptide” for “peptide sequence”, “= VKDNYI,” for “= VKDRYI,”, “derived by products” for “derived by-products”

[5] = Prolonged treatment of VKDGYI peptide resin with 1 M Oxyma Pure and 20 % piperidine (aspartimide formation); format: physicochemical; conditions: for Asu per 10' cycle / Asu [%] / piperidides [%]: Oxyma Pure +; for Asu [%] / piperidides [%] / target [%]: 18 hours; for target [%]: Oxyma Pure +: 1 M Oxyma Pure and 20 % piperidine in dimethylformamide
Description: [drawing 14] 50 mg samples of the corresponding aspartic acid derivatives of example 4 are treated over 18 hours with a solution of 1 M Oxyma Pure and 20 % piperidine in dimethylformamide. The peptides are cleaved off the resin with 95 % TFA and analysed with HPLC as well as MS to identify all aspartimide related products (conditions see example 4). The results are summarized in table 6: Table 6: Results after 110 Fmoc removal cycles using an acidic modifier in the piperidine mediated Fmoc removal cocktails, target peptide = VKDG YI, the aspartimide derived by-products are the aspartimide itself and the sum of piperidides

[6] = Prolonged piperidine treatment of VKDGYI peptide resin (aspartimide formation, Asp-Gly motif)
[7] = VKDGYI, 20 % piperidine in dimethylformamide
[8] = VKDGYI, 20 % piperidine in dimethylformamide, 18 hours, aspartimide
[9] = VKDGYI, 20 % piperidine in dimethylformamide, 18 hours, sum of piperidides
[10] = VKDGYI, Oxyma Pure -: 20 % piperidine only, 18 hours (as Table 1)
[11] = target peptide VKDGYI, 20 % piperidine in dimethylformamide over 18 hours, 110 Fmoc removal cycles
[12] = VKDGYI, 1 M Oxyma Pure in 20 % piperidine

Row | Asu per 10' cycle ([1]; VKDRYI) | Half-life in cycles ([1]; VKDRYI) | D/L-Asu [%] ([1]; VKDRYI) | piperidides [%] ([1]; VKDRYI) | target [%] [1] | Half-life in cycles [2] | D/L-Asu [%] ([2]; VKDRYI) | piperidides [%] ([2]; VKDRYI) | Asu per 10' cycle ([2]; VKDRYI, piperidine at 60°C) | target [%] [2] | Asu per 2' cycle ([3]; VKDNYI, DBU) | D/L-Asu [%] ([3]; VKDNYI) | piperides [%] ([3]; VKDNYI) | target [%] [3] | Asu per 10' cycle ([4]; VKDNYI, piperidine) | D/L-Asu [%] ([4]; VKDNYI, piperidine) | piperidides [%] ([4]; VKDNYI, piperidine) | target [%] ([4]; piperidine) | Asu per 10' cycle ([5]; VKDGYI) | Asu [%] ([5]; VKDGYI) | Structure (SMILES) | also measured
1 | 0.06 | 1202 cycles | 2.6% | 3.6% | 93.8% | 718 cycles | 4.9% | 4.3% | 0.1 | 90.8% | 0.3 | 3.5% | 22.0% | 74.5% | 0.04 | 0.9% | 3.6% | 95.5% | – | – | CCCCC(CCCC)(CCCC)OC(=O)C[C@H](NC(=O)OCC1c2ccccc2-c2ccccc21)C(=O)O [Bno] | aspartimide side reaction during the Fmoc removals per cycle ([1]; VKDRYI): less than 0.06%; aspartimide formation per 2 minute Fmoc removal cycle ([3]; VKDNYI, DBU): less than 0.3%; aspartimide side reaction during the Fmoc removals, rate per cycle ([4]; VKDNYI, piperidine): 0.05%
2 | 0.1 | 539 cycles | 3.90% | 9.4% | 86.7% | 439 cycles | 7.8% | 6.8% | 0.2 | 85.4% | 0.5 | 5.6% | 37.3% | 57.1% | 0.2 | 3.0% | 16.0% | 81.0% | 0.14 | 2.6% | CCC(CC)(CC)OC(=O)C[C@H](NC(=O)OCC1c2ccccc2-c2ccccc21)C(=O)O [Epe, (2S)-N-((9H-fluoren-9-ylmethyloxy)carbonyl)aspartic acid-4-((3-ethyl)pent-3-yl) ester] | aspartimide by-products per cycle ([2]; VKDRYI): 0.2%; Half-life in cycles [3]: 138 cycles; piperidides [%] ([5]; VKDGYI): 11.7%; target [%] ([5]; VKDGYI): 85.7%; Half-life in cycles [4]: 365 cycles; Asu per 10' cycle [%] [6, 7]: 0.4%; Asu [%] [6, 8]: 4.1%; piperidides [%] [6, 9]: 31.5%; Asu [%] ([6]; VKDGYI, Oxyma Pure -): 4.1%; Asu per 10' cycle ([6]; VKDGYI, Oxyma Pure -): 0.4; piperidides [%] ([6]; VKDGYI, Oxyma Pure -): 31.5%; target [%] [6, 10]: 64.4%; minimizes the aspartimide formation by a factor compared to Mpe ([6]; VKDGYI, relative to Mpe protection): two; target [%] [6, 11]: 64.4%
3 | 0.4 | 173 cycles | 6.9% | 28.9% | 64.2% | – | 16.9% | 19.6% | 0.5 | 63.5% | 1.5 | 7.5% | 73.7% | 18.8% | 0.5 | 4.3% | 37.5% | 58.2% | 0.16 | 3.8% | CCC(C)(CC)OC(=O)C[C@H](NC(=O)OCC1c2ccccc2-c2ccccc21)C(=O)O [Mpe, Fmoc-Asp(OMpe)-OH, reference compound] | times more aspartimide per Fmoc removal cycle ([1]; VKDRYI, in comparison to Bno): approximately seven; Half-life in cycles ([1]; VKDRYI, listed as Fmoc-Asp(OMpe)-OH): approx. 170 cycles; aspartimide by-products per cycle ([2]; VKDRYI): 0.5%; Half-life in cycles ([2]; VKDRYI, piperidine at 60°C): 153 cycles; Half-life in cycles ([3]; VKDNYI, DBU, 2' cycles): 46 cycles; piperidides [%] ([5]; VKDGYI): 12.0%; target [%] ([5]; VKDGYI): 84.2%; Half-life in cycles ([4]; VKDNYI, piperidine): 140 cycles; times more aspartimide per Fmoc removal cycle ([4]; VKDNYI, piperidine, in comparison to Bno): ten; Asu per 10' cycle [%] [6, 7]: 0.8%; Half-life in 10' cycles [6, 7]: 90 10' cycles; Asu [%] [6, 8]: 6.7%; piperidides [%] [6, 9]: 51.0%; Asu [%] ([6]; VKDGYI, Oxyma Pure -): 6.7%; Asu per 10' cycle ([6]; VKDGYI, Oxyma Pure -): 0.8; piperidides [%] ([6]; VKDGYI, Oxyma Pure -): 51.0%; target [%] [6, 10]: 42.3%; target [%] [6, 11]: 42.3%
4 | 0.08 | 845 cycles | 3.2% | 5.5% | 91.3% | 532 cycles | 7.1% | 5.1% | 0.1 | 87.8% | 0.4 | 3.3% | 25.7% | 71.0% | 0.09 | 1.0% | 8.2% | 90.8% | 0.04 | 1.3% | CCCC(CCC)(CCC)OC(=O)C[C@H](NC(=O)OCC1c2ccccc2-c2ccccc21)C(=O)O [Php, (2S)-N-((9H-fluoren-9-ylmethyloxy)carbonyl)aspartic acid-4-(4-(n-propyl)hept-4-yl) ester] | Half-life in cycles [3]: 192 cycles; aspartimide side reaction ([5]; Asp-Gly sequence, Fmoc removal solution of 1 M Oxyma Pure in piperidine/DMF 1:4): nearly inhibits the apartimide side reaction; aspartimide derived by-products per Fmoc removal [5, 12]: 0.05%; half-life [5, 12]: greater than 1500 cycles; piperidides [%] ([5]; VKDGYI): 3.3%; target [%] ([5]; VKDGYI): 95.4%; Half-life in cycles [4]: 800 cycles; half-life of the target peptide increased, in respect of Mpe ([6]; VKDGYI, Asp-Gly sequence, relative to Mpe protection): 4 fold; half-life of the target peptide increased, instead of tBu ([6]; VKDGYI, Asp-Gly sequence, relative to tBu protection): more than 10 fold; Asu per 10' cycle [%] [6, 7]: 0.2%; Asu [%] [6, 8]: 2.9%; piperidides [%] [6, 9]: 16.5%; Asu [%] ([6]; VKDGYI, Oxyma Pure -): 2.9%; Asu per 10' cycle ([6]; VKDGYI, Oxyma Pure -): 0.2; piperidides [%] ([6]; VKDGYI, Oxyma Pure -): 16.5%; target [%] [6, 10]: 80.6%; target [%] [6, 11]: 80.6%

Source: patent EP2886531B1, “Aspartic acid derivatives” (Merck Patent GmbH, priority 2013, dated 2015)
